Measured values taken from publication PMC11881559 (Antimicrobial Agents and Chemotherapy, 2025).

How the values were obtained:
[1] = Preclinical toxicology, NOAEL in rats; assay type: in vivo; settings: from rat NOAEL, at 60 kg body weight
[2] = Drug-drug interaction (DDI) study with ritonavir, plasma PK; settings: 200 mg in combination with ritonavir vs 200 mg alone
[3] = dogs; preclinical animal studies; cited from earlier work
[4] = Preclinical toxicology, NOAEL in dogs; assay type: in vivo; settings: from dog NOAEL, at 60 kg body weight
Omicron = settings: in vitro, corrected by the plasma protein binding rate; cited from earlier work
CYP3A = settings: in vitro CYP reaction phenotyping, preclinical; cited from earlier work
[5] = Single ascending dose (SAD) study, plasma PK; assay type: in vivo, human; settings: for AUC0-t / AUC0-∞ / Cmax / MRT0-∞ / λz: mean (%CV); for t1/2: mean ± SD; for Tmax: median (range)
Experimental: For the MAD and food-effect studies, the doses were chosen according to the PK and safety results of the SAD study. […] The tablets were administered from the lowest dosage. The next highest dose level was initiated based on PK characteristics and a 5-day safety observation of the previous dose by the investigators and sponsors. […] This study included two groups: one group under feeding conditions (a high-fat diet comprising 110 g of boiled eggs, 240 mL of milk, 20 g of bacon, 20 g of butter, 50 g of toast, 10 g of salad oil, and 115 g of chips consumed within 30 min before dosing) and one group under fasting conditions. […] Interventions for all cohorts, except the 200 mg cohort, were conducted at the First Hospital of Jilin University (Changchun, China). The randomization lists were created using the PLAN statistical procedure in SAS 9.4 software (SAS Institute, Cary, NC, USA). Throughout the study, unblinding was only used in the event of SAEs or other emergency situations; otherwise, blinding was maintained for investigators, participants, and sponsors until the study’s completion.
For the SAD, food-effect, and DDI studies, blood samples were collected before dose administration and at 15 min, 30 min, and 1, 1.5, 2, 3, 4, 6, 8, 12, 24, 36, 48, 72, and 96 h after dose administration. We used collection tubes containing the anticoagulant EDTA for PK assessments. In the MAD study, blood samples were obtained on day 1 at 0 h, 15 min, 30 min, and 1, 1.5, 2, 3, 4, 6, 8, and 12 h after dosing; on days 2–4; and on day 5 at 0 h, 15 min, 30 min, and 1, 1.5, 2, 3, 4, 6, 8, 12, 24, 36, 48, 72, and 96 h after dosing. The […] samples were subsequently centrifuged at 1,300 × g for 10 min at 2–8°C. For the food-effect component, urine samples were collected in tubes containing 0.01% Triton X-100 at the following intervals: 0, 0–6, 6–12, 12–24, 24–48, 48–72, 72–96, 96–120, 120–144, 144–168, and 168–192 h after administration. Fecal samples were collected from 0 h to 192 h after the first dose. All the samples were stored at −80°C.
The standard curve concentrations ranged from 5 to 5,000 ng/mL, 10 to 10,000 ng/mL, and 5 to 5,000 µg/g in the plasma, urine, and fecal samples, respectively. The lower limits of quantification were 5.00 ng/mL, 10.00 ng/mL, and 5.00 µg/g for the plasma, urine, and fecal samples, respectively.
The noncompartmental model (Phoenix WinNonlin ver. 8.2.2.227, Certara, Princeton, USA) was used to calculate the PK parameters: time to maximum observed plasma concentration (Tmax); maximum observed plasma concentration (Cmax); area under the concentration-time curve from the time of dosing to the last time point with measurable plasma concentrations of drug (AUC0-t); AUC from the time of dosing extrapolated to infinity (AUC0-∞); terminal elimination half-life of the drug in plasma (t1/2); clearance (CL/F); volume (Vz/F); terminal phase elimination rate constant (λz); and mean retention time (MRT). The power model was used to evaluate the relationship between PK parameters and the dose level, expressed as ln (PK parameter) = ln (α) + β * ln (dose), where ln (α) is the intercept of the transformed linear regression equation and β is the slope. Upon calculating the 90% CI of β, if the entire 90% CI of β falls within the judgment interval, the PK parameters can be deemed linearly related to the dosage.

[6] = 12-lead ECG QTcF assessment and C-QT model; assay type: in vivo, human
Experimental: To evaluate the cardiotoxicity of the drug, 12-lead ECG was conducted at several time points: 0 h, 1 h, 2 h, 4 h, 24 h, 48 h, 72 h, and 96 h after dosing in the SAD, food-effect, and DDI studies. In the MAD study, 12-lead ECG data were collected on day 1 (0 h, 1 h, 2 h, 4 h, and 8 h after dosing) and on day 5 (0 h, 1 h, 2 h, 4 h, 24 h, 48 h, 72 h, and 96 h after dosing), as well as before dosing and 2 h after dosing on days 2–4. Three consecutive ECGs were performed at each of these time points. The QT interval was corrected using the Fridericia formula [QTcF = QT / (RR^0.33), where RR = 60/heart rate]. Descriptive statistics were applied to the number of participants with abnormal changes in QTcF after dosing compared to baseline, including: (i) absolute value of QTcF >450 ms; (ii) absolute value of QTcF >500 ms; (iii) 30 ms < ΔQTcF ≤ 60 ms; (iv) ΔQTcF >60 ms (ΔQTcF = QTcF after dosing − baseline).

O=C(NC1CCCC1)C(=O)[C@H](C[C@@H]1CCNC1=O)NC(=O)[C@@H]1[C@H]2CCC[C@H]2CN1C(=O)[C@@H](NC(=O)C(F)(F)F)C1CCCCC1 [RAY1216, leritrelvir]
human equivalent dose [1]: approximately 10,800 mg/day | mean AUC0-t increased to [2]: 350.07% | mean AUC0-∞ increased to [2]: 171.00% | mean C12h concentration increased by [2]: 417.3 ng/mL | mean Cmax increased to [2]: 348.03% | no-observed-adverse-effect level (NOAEL) [3]: 600 mg/kg/day | human equivalent dose [4]: ~21,000 mg/day | antiviral 90% effective concentration (EC90) (Omicron): 0.2097 µg/mL | primary metabolizing enzyme (CYP3A): CYP3A is the primary metabolizing enzyme | AUC0-t ([5]; 200 mg single dose): 5,510 (22.7) ng·h/mL | AUC0-∞ ([5]; 200 mg single dose): 5,550 (22.7) ng·h/mL | Cmax ([5]; 200 mg single dose): 1,270 (42) ng/mL | MRT0-∞ ([5]; 200 mg single dose): 5.01 (13.5) h | λz ([5]; 200 mg single dose): 0.214 (6.2) h^−1 | t1/2 ([5]; 200 mg single dose): 3.25 ± 0.202 h | Tmax ([5]; 200 mg single dose): 1.5 (0.5, 2.0) h | AUC0-t ([5]; 400 mg single dose): 11,700 (45.8) ng·h/mL | AUC0-∞ ([5]; 400 mg single dose): 11,700 (45.6) ng·h/mL | Cmax ([5]; 400 mg single dose): 2,250 (53.8) ng/mL | MRT0-∞ ([5]; 400 mg single dose): 6.05 (9.9) h | λz ([5]; 400 mg single dose): 0.172 (36) h^−1 | t1/2 ([5]; 400 mg single dose): 4.83 ± 2.86 h | Tmax ([5]; 400 mg single dose): 1.3 (1.0, 4.0) h | AUC0-t ([5]; 800 mg single dose): 16,200 (18.7) ng·h/mL | AUC0-∞ ([5]; 800 mg single dose): 16,300 (18.8) ng·h/mL | Cmax ([5]; 800 mg single dose): 3,590 (20.2) ng/mL | MRT0-∞ ([5]; 800 mg single dose): 6.75 (38.2) h | λz ([5]; 800 mg single dose): 0.128 (73.6) h^−1 | t1/2 ([5]; 800 mg single dose): 10.3 ± 9.72 h | Tmax ([5]; 800 mg single dose): 1.5 (1.0, 3.0) h | AUC0-t ([5]; 1,600 mg single dose): 29,100 (24.1) ng·h/mL | AUC0-∞ ([5]; 1,600 mg single dose): 29,100 (24.1) ng·h/mL | Cmax ([5]; 1,600 mg single dose): 6,180 (20.1) ng/mL | MRT0-∞ ([5]; 1,600 mg single dose): 5.94 (13.4) h | λz ([5]; 1,600 mg single dose): 0.139 (22.4) h^−1 | t1/2 ([5]; 1,600 mg single dose): 5.22 ± 1.16 h | Tmax ([5]; 1,600 mg single dose): 1.5 (1.0, 4.0) h | participants with absolute value of QTcF exceeding 450 ms ([6]; 700 mg combined with ritonavir BID group): one | mean ΔΔQTcF ([6]; 700 mg combined with ritonavir BID, at average Cmax 9280 ng/mL, C-QT model, 90% CI: −1.6526–7.0164): 2.6819 ms | correlation between drug concentration and the QT interval ([6]; C-QT model analysis): no significant correlation | participants exceeding a ΔQTcF of 60 ms ([6]; all cohorts): no participants | upper limit of the 90% CI for the average ΔΔQTcF ([6]; at the average Cmax concentration in each cohort, C-QT model predicted): less than 10 ms
